The values that follow are results of earlier work, collected in patent publication US20200199640A1, “PROCESS FOR OBTAINING […] A HOST CELL COMPRISING POLYNUCLEOTIDES ENCODING FOR PO[…] IN THE OMPHALOTIN BIOSYNTHESIS” (TECHNISCHE UNIVERSITÄT BERLIN, priority 2017, published 2020).

Molecules are shown by their SMILES. Non-standard residues stand in square brackets, D forms with d. Residues, ends and D or L forms follow the SMILES beside them. ξ: configuration not given here. NMeIle(3ξ) = CCC(C)[C@H](NC)C(=O)O; Ile(3ξ) = CCC(C)[C@H](N)C(=O)O; NMeV = CN[C@H](C(=O)O)C(C)C; Sar = CNCC(=O)O

One data set relates to Meloidogyne incognita. Particulars: literature statement (A. Mayer et al, Pestic. Sci. 1999, 55, 27-30).
For data set [1] the following is noted: literature statement (A. Mayer et al, Pestic. Sci. 1999, 55, 27-30).
The conditions of data set [2]: literature statement (A. Mayer et al, Pestic. Sci. 1999, 55, 27-30). The source holds these as a separate data set.
The conditions of data set [3]: literature statement (A. Mayer et al, Pestic. Sci. 1999, 55, 27-30). The source holds these as a separate data set.

For `CCC(C)[C@@H]1NC(=O)[C@H](C(C)C)N(C)C(=O)[C@H](Cc2c[nH]c3ccccc23)NC(=O)CN(C)C(=O)[C@H](C(C)CC)N(C)C(=O)[C@H](C(C)C)NC(=O)CN(C)C(=O)[C@H](C(C)CC)N(C)C(=O)[C@H](C(C)C)N(C)C(=O)CN(C)C(=O)[C@H](C(C)C)N(C)C(=O)[C@H](C(C)C)N(C)C1=O` (stereo partly shown) [Omphalotin A] (cyclo([Ile(3ξ)][NMeV][NMeV][Sar][NMeV][NMeIle(3ξ)][Sar]V[NMeIle(3ξ)][Sar]W[NMeV])), in the data set on Meloidogyne incognita, the “activity against the plant pathogen nematode Meloidogyne incognita” value is “strong and selective activity”. Also, the phytotoxic activity entry in data set [1] was “no further phytotoxic, antibacterial or antifungal activities”. Besides, the antibacterial activity entry in data set [2] was “no further phytotoxic, antibacterial or antifungal activities”. Further, in data set [3], the antifungal activity result is “no further phytotoxic, antibacterial or antifungal activities”.
